Assay results published in US20030232851A1, “Viral treatment” (The Procter & Gamble Company, priority 1999, published 2003).
In brackets after ≈: the same amount, converted by molar mass.

Columns and labels:
[1] = tested on: U937KN1272, a protease resistant strain; assay: Long term in vitro study, U937KN1272, reverse transcriptase; format: cell-based, HIV
Experimental: A microtiter-based reveres transcriptase (RT) reaction is utilized (Buckheit et al (1991) AIDS Research and Human Retroviruses 7:295-302). Tritiated thymidine triphosphate (NEN)(TTP) is resuspended in distilled water at 5 Ci/ml. Poly rA and oligo dT are prepared as a stock solution which is kept at −20° C. The RT reaction buffer is prepared fresh on a daily basis and consists of 125 μl 1M EGTA, 125 μl water, 125 μl Triton X-100, 50 μl Tris (pH 7.4), 50 μl 1 MDDT, and 40 μl 1M MgCl2. These three solutions are mixed together in a ratio of 1 part TTP, 2.5 parts poly rA:oligo dT, 2.5 parts reaction buffer and 4 parts distilled water. Ten microliters of this reaction mixture is placed in a round bottom microtiter place and 15 μl of virus containing supernatant is added and mixed. The plate is incubated at 37° C. for 60 minutes. Following reaction, the reaction volume is spotted onto filter mats, washed 6 times for 5 minutes each in a 5% sodium phosphate buffer, 2 times for 1 minute each in distilled water, 2 times for 1 minute each in 70% ethanol, and then dried. The dried filter mat is placed in a plastic sample bag, Betaplate scintillation fluid is added and the bag is heat sealed. Incorporated radioactivity is quantified utilizing a Wallac Microbeta scintillation counter.
Acute infection of most established human cell lines with HIV-1 results in the eventual establishment of a constitutive virus-producing chronically infected cell line. The cells can be passaged for long periods of time in culture without loss of virus production. These cells may be utilized to evaluate the effects of anti-HIV compounds on syncytium formation or to evaluate the effects of anti-HIV compounds on levels of virus production from these cells. […] Each of the cells contains an integrated HIV genome or provirus. Chronically infected CEM, H9 and U937 cell lines have been prepared and cultured by Southern Research Institute, Frederick Md. and are available from them.
CEM-SS cells chronically infected with HIV isolate, for example SKI (CEM-SKI) are cultured in RPMI1640 tissue culture medium supplemented with 10% fetal bovine serum and antibiotics. […] CEM-SKI or other infected cells with no added drug are used as the control cells. Cells are allowed to grow to a density of approximately 1×10^6 cells/ml and are then passaged at a 1:10 dilution. […] The drug concentration in the flask is then increased two-fold and the cells maintained as above.
The cell populations contain integrated copies of the HIV genome and constitutively produce HIV at relatively high levels or are latently infected and only produce virus after stimulation with phorbol esters, tumor necrosis factor or IL6 (U1 and ACH2). Reductions in virus products were observed when quantifying supernatant reverse transcriptase activity,
Similar results are obtained with U937KN1272, a protease resistant strain, reported below.

Curvularia lunata = assay: Anti-fungal activity (NCCLS M-27A based), Curvularia lunata; format: cell-based
Experimental: It was active against cryptococcus neoformans and curvularai lunata. The cidal activity for the C. neoformans is high enough that it is clear […] against this yeast. This test was conducted using a method based upon NCCLS reference method M-27A published in 1997. Solvent, medium and growth controls were set-up with the tests. Once these were read to validate the test performance, the QC fungi were read to insure they had expected results. These steps validated the test system. DMSO was used as a drug-chemical solvent. […] The 90% cut-off is necessary for azoles, which are static and not cidal. The FMC or cidal level was determined by sub-culturing a sample from each tube showing no growth.

In the case of `c1csc(-c2nc3cccnc3[nH]2)c1` [2-(2-thienyl)-imidazolo [4,5-b]pyridine], the reverse transcriptase data ([1]; 7 μg/ml, day 4) is reported as 3503, the reverse transcriptase data ([1]; 7 μg/ml, day 11) is reported as 10001 and the reverse transcriptase data ([1]; 7 μg/ml, day 18) is reported as 14176. The reverse transcriptase data ([1]; 7 μg/ml, day 25) was 14084, the reverse transcriptase data ([1]; 7 μg/ml, day 32) was 9919 and the reverse transcriptase data ([1]; 7 μg/ml, day 39) was 8890. The reverse transcriptase data ([1]; 7 μg/ml, day 46) was 9238, the reverse transcriptase data ([1]; 7 μg/ml, day 53) was 9074 and the reverse transcriptase data ([1]; 7 μg/ml, day 60) was 7460. The reverse transcriptase data ([1]; 7 μg/ml, day 67) was 7863, the reverse transcriptase data ([1]; 7 μg/ml, day 71) was 8402 and the reverse transcriptase data ([1]; 7 μg/ml, day 74) was 8976. For the same compound, the reverse transcriptase data ([1]; 7 μg/ml, day 88) was 8522, the reverse transcriptase data ([1]; 7 μg/ml, day 95) was 9358 and the reverse transcriptase data ([1]; 7 μg/ml, day 102) was 9221. The reverse transcriptase data ([1]; 7 μg/ml, day 109) was 8245, the reverse transcriptase data ([1]; 15 μg/ml, day 4) was 2354 and the reverse transcriptase data ([1]; 15 μg/ml, day 11) was 7962. The reverse transcriptase data ([1]; 15 μg/ml, day 18) was 11866, the reverse transcriptase data ([1]; 15 μg/ml, day 25) was 13386 and the reverse transcriptase data ([1]; 15 μg/ml, day 32) was 10413. The reverse transcriptase data ([1]; 15 μg/ml, day 39) was 8675, the reverse transcriptase data ([1]; 15 μg/ml, day 46) was 8124 and the reverse transcriptase data ([1]; 15 μg/ml, day 53) was 7645. For the same compound, the reverse transcriptase data ([1]; 15 μg/ml, day 60) was 5534, the reverse transcriptase data ([1]; 15 μg/ml, day 67) was 4321 and the reverse transcriptase data ([1]; 15 μg/ml, day 71) was 5364. For the same compound, the reverse transcriptase data ([1]; 15 μg/ml, day 74) was 6974, the reverse transcriptase data ([1]; 15 μg/ml, day 88) was 4297 and the reverse transcriptase data ([1]; 15 μg/ml, day 95) was 5224. For the same compound, the reverse transcriptase data ([1]; 15 μg/ml, day 102) was 5361, the reverse transcriptase data ([1]; 15 μg/ml, day 109) was 7833 and the reverse transcriptase data ([1]; 30 μg/ml, day 4) was 1209. It also gave a reverse transcriptase data ([1]; 30 μg/ml, day 11) of 4377, a reverse transcriptase data ([1]; 30 μg/ml, day 18) of 6376 and a reverse transcriptase data ([1]; 30 μg/ml, day 25) of 9293. For the same compound, the reverse transcriptase data ([1]; 30 μg/ml, day 32) was 9903, the reverse transcriptase data ([1]; 30 μg/ml, day 39) was 6852 and the reverse transcriptase data ([1]; 30 μg/ml, day 46) was 2502. The reverse transcriptase data ([1]; 30 μg/ml, day 53) was 2760, the reverse transcriptase data ([1]; 30 μg/ml, day 60) was 2478 and the reverse transcriptase data ([1]; 30 μg/ml, day 67) was 1643. For the same compound, the reverse transcriptase data ([1]; 30 μg/ml, day 71) was 4820, the reverse transcriptase data ([1]; 30 μg/ml, day 74) was 3270 and the reverse transcriptase data ([1]; 30 μg/ml, day 88) was 3184. The reverse transcriptase data ([1]; 30 μg/ml, day 95) was 2031, the reverse transcriptase data ([1]; 30 μg/ml, day 102) was 3427 and the reverse transcriptase data ([1]; 30 μg/ml, day 109) was 1356. For the same compound, the MIC (Curvularia lunata; Curvularia lunata, growth inhibited or reduced at least 90%) was 0.03 mg/L (≈ 0.149 µM) and the “activity against Curvularia lunata (in words)” value (Curvularia lunata; in vitro) was “active”.
